Source: patent US20120270744A1, “METHODS TO DETERMINE IF A SUBJECT WILL RESPOND TO A BCR-ABL INHIBITOR” (Oregon Health & Science University, priority 2007, published 2012)
Like-named read-outs stand apart in the source and are kept apart here.

How the values were obtained:
[1] = tested on: Lin−/CD34+/CD38+ and Lin−/CD34+/CD38− CML cells; assay: Culture of sorted primitive CML cells with imatinib: growth and viability; assay type: cell-based, human; conditions: 5 μM imatinib, physiological concentrations of cytokines
Description: FIGS. 9A-9C are a set of graphs dot plots and digital images of Western blots showing viable cells and phosphotyrosine content following treatment with a BCR-ABL inhibitor. […] (FIG. 9B) After 2 hours, immunoblot analysis of cellular extracts for Crkl phosphorylation was preformed. (FIG. 9C) Aliquots from the same cultures were analyzed by FACS analysis for total cellular phosphotyrosine content. Results were identical after 96 hours of culture.
A combination of lineage-depletion columns and high speed sorting was used to select highly pure populations of Lin−/CD34+/CD38+(enriched for progenitor cells) and Lin−/CD34+/[…] (enriched for stem cells). […] It was concludes that survival of primitive CML cells may not require BCR-ABL kinase activity, implicating BCR-ABL-independent extrinsic or intrinsic mechanisms in the maintenance of viability.

[2] = tested on: newly diagnosed chronic phase CML patients; assay: Cytogenetic response of validation set patients treated with imatinib; assay type: in vivo, human; conditions: within 12 months, 23 newly diagnosed chronic phase patients
[3] = tested on: patients with CML in chronic phase; conditions: cited from earlier work; for risk of progression to accelerated phase or blast crisis: at 5 years
[4] = tested on: CML CD34+ cells; assay: Centrifugal adhesion assay to fibronectin with fluorescently labeled cells; assay type: cell-based, human
Text: (FIG. 10A) Adhesion under the carious conditions. (FIG. 10B) Fold expansion of viable cells. (FIG. 10C) Recovery of CFU-GM.
To reliably quantify adherence we modified the McClay (1981 PNAS 78:4975-9) centrifugal adhesion assay, using fluorescently labeled cells.

## Cc1ccc(NC(=O)c2ccc(CN3CCN(C)CC3)cc2)cc1Nc1nccc(-c2cccnc2)n1 [imatinib]
[1]
  viability: viability was maintained
[1]; preliminary experiments N=4
  growth (total number of viable cells over time): reduced to approximately the level of normal cells
[2]
  patients who achieved CCyR: 74%
[3]; 60 months of follow-up
  projected overall survival: 89%
[3]; among those who lost response
  patients who progressed to accelerated phase or blast crisis: 7%
[3]; patients in complete cytogenetic response after 12 months of therapy
  risk of progression to accelerated phase or blast crisis: 3%
[3]; patients with primary cytogenetic resistance
  risk of progression to accelerated phase or blast crisis: 19%
[3]; at 12 months
  patients with primary cytogenetic resistance (failed to attain a major cytogenetic response): approximately 14%
[3]; human, in vivo
  patients who lost their response: approximately 16%
[3]; newly diagnosed CML in chronic phase, imatinib as initial therapy, 60 months of follow-up
  cumulative rate of complete cytogenetic response (CCyR, 0% Ph+ metaphases): 87%
[4]; imatinib 5 micoM, 96 hours culture
  spontaneous adhesion to fibronectin: further reduced
[4]; imatinib in presence of beta1 integrin activating antibody B44
  adhesion to fibronectin: again reduced
